Data taken from PubChem BioAssay AID330 (DTP/NCI, 2004).
Several values for one entry are separate records, joined by “and”; a condition that tells them apart may be missing. Equal values may be shown once. Inconclusive results and toxic doses are left out. Peptide text beside a SMILES is read from it. * marks the point of attachment. Cbz = O=C(OCc1ccccc1)*

Test system: P388 leukemia ip, CD2F1 mice, survival T/C
Assay: NCI In Vivo Anticancer Drug Screen. Data for tumor model P388 Leukemia (intraperitoneal) in CD2F1 (CDF1) mice
Details: endpoint: median survival time, higher = longer survival
Method in brief: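 Mice carrying the transplanted tumor received test compound or vehicle. Survival was recorded in each group, and the value is the treated-group measurement divided by that of the vehicle-treated control group.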

[1] = dose: 12.5 mg/kg/injection, schedule: Q01DX009 (ip), vehicle: saline
[2] = dose: 25.0 mg/kg/injection, schedule: Q01DX009 (ip), vehicle: saline
[3] = dose: 50.0 mg/kg/injection, schedule: Q01DX009 (ip), vehicle: saline
[4] = dose: 100.0 mg/kg/injection, schedule: Q01DX009 (ip), vehicle: saline
[5] = dose: 100.0 mg/kg/injection, schedule: Q04DX003 (ip), vehicle: saline
[6] = dose: 25.0 mg/kg/injection, schedule: Q01DX005 (ip), vehicle: saline with Tween-80
[7] = dose: 50.0 mg/kg/injection, schedule: Q01DX005 (ip), vehicle: saline with Tween-80
[8] = dose: 100.0 mg/kg/injection, schedule: Q04DX003 (ip), vehicle: saline with Tween-80
[9] = dose: 200.0 mg/kg/injection, schedule: Q04DX003 (ip), vehicle: saline with Tween-80
[10] = dose: 100.0 mg/kg/injection, schedule: Q04DX002 (ip), vehicle: saline with Tween-80
[11] = dose: 200.0 mg/kg/injection, schedule: Q04DX002 (ip), vehicle: saline with Tween-80
[12] = dose: 400.0 mg/kg/injection, schedule: Q04DX002 (ip), vehicle: saline with Tween-80
[13] = dose: 50.0 mg/kg/injection, schedule: Q01DX009 (ip), vehicle: Klucel (hydroxypropylcellulose) (HPC)
[14] = dose: 100.0 mg/kg/injection, schedule: Q01DX009 (ip), vehicle: Klucel (hydroxypropylcellulose) (HPC)
[15] = dose: 200.0 mg/kg/injection, schedule: Q01DX009 (ip), vehicle: Klucel (hydroxypropylcellulose) (HPC)
[16] = dose: 60.0 mg/kg/injection, schedule: Q01DX005 (ip), vehicle: saline with Tween-80
[17] = dose: 240.0 mg/kg/injection, schedule: Q01DX005 (ip), vehicle: saline with Tween-80
[18] = dose: 50.0 mg/kg/injection, schedule: Q01DX005 (ip), vehicle: saline
[19] = dose: 100.0 mg/kg/injection, schedule: Q01DX005 (ip), vehicle: saline
[20] = dose: 200.0 mg/kg/injection, schedule: Q01DX005 (ip), vehicle: saline

In the case of `CN1CCC(/C=C/c2ccc(Cl)c(Cl)c2)CN1` (centres undefined) (tested in a mixture with another compound), the T/C (dose: 25.0 mg/kg/injection, schedule: Q01DX001 (ip), vehicle: saline) is reported as 100 % of control and 95 % of control, the T/C (dose: 50.0 mg/kg/injection, schedule: Q01DX001 (ip), vehicle: saline) is reported as 100 % of control and the T/C (dose: 100.0 mg/kg/injection, schedule: Q01DX001 (ip), vehicle: saline) is reported as 104 % of control and 93 % of control. For the same compound, the T/C (dose: 100.0 mg/kg/injection, schedule: Q01DX001 (ip), vehicle: suspension in saline) was 116 % of control.

In the case of `CN(C)P1(N(C)C)=NP(N(C)C)(N(C)C)=NP(N(C)C)(N(C)C)=N1`, the T/C [1] is reported as 99 % of control, the T/C [2] is reported as 89 % of control and the T/C (dose: 25.0 mg/kg/injection, schedule: Q04DX003 (ip), vehicle: saline) is reported as 99 % of control. The T/C [3] was 90 % of control, the T/C (dose: 50.0 mg/kg/injection, schedule: Q04DX003 (ip), vehicle: saline) was 100 % of control and the T/C [4] was 96 % of control. The T/C [5] was 100 % of control.

With `COc1ccc2sc(-c3ccccc3)cc(=O)c2c1CCl` the T/C (dose: 100.0 mg/kg/injection, schedule: Q01DX001 (ip), vehicle: saline with Tween-80) was 94 % of control, the T/C (dose: 200.0 mg/kg/injection, schedule: Q01DX001 (ip), vehicle: saline with Tween-80) was 97 % of control and the T/C (dose: 400.0 mg/kg/injection, schedule: Q01DX001 (ip), vehicle: saline with Tween-80) was 100 % of control.

With `CC(=O)OCn1cc2c3c(cccc31)C1CC(C)CN(C)C1C2` (centres undefined) the T/C (dose: 12.5 mg/kg/injection, schedule: Q01DX005 (ip), vehicle: saline with Tween-80) was 98 % of control, the T/C [6] was 106 % of control and the T/C [7] was 100 % of control.

In the case of `FC(F)(F)C1(C(F)(F)F)O[Si]2(OC(C(F)(F)F)(C(F)(F)F)c3ccccc32)c2ccccc21`, the T/C (dose: 25.0 mg/kg/injection, schedule: Q01DX005 (ip), vehicle: distilled water + Tween-80 + alcohol) is reported as 97 % of control, the T/C [6] is reported as 105 % of control and the T/C (dose: 50.0 mg/kg/injection, schedule: Q01DX005 (ip), vehicle: distilled water + Tween-80 + alcohol) is reported as 96 % of control. The T/C [7] was 103 % of control and the T/C (dose: 100.0 mg/kg/injection, schedule: Q01DX005 (ip), vehicle: saline with Tween-80) was 105 % of control.

`Nc1ccc(S(=O)O)cc1` was tested, and the T/C [8] was 100 % of control, the T/C [9] was 100 % of control and the T/C (dose: 400.0 mg/kg/injection, schedule: Q04DX003 (ip), vehicle: saline with Tween-80) was 100 % of control.

`O=c1[nH]cnc2c1CCc1ccccc1-2` was tested, and the T/C [10] was 93 % of control, the T/C [11] was 100 % of control and the T/C [12] was 102 % of control.

`CCOC(=O)C(SC(S(=O)(=O)c1ccccc1)S(=O)(=O)c1ccccc1)C(=O)OCC` was tested, and the T/C [13] was 98 % of control, the T/C [14] was 90 % of control and the T/C [15] was 90 % of control.

`CN(C)/C=C1\CCCCC1=C(C#N)C#N` was tested, and the T/C [5] was 100 % of control, the T/C (dose: 200.0 mg/kg/injection, schedule: Q04DX003 (ip), vehicle: saline) was 93 % of control and the T/C (dose: 400.0 mg/kg/injection, schedule: Q04DX003 (ip), vehicle: saline) was 95 % of control.

With `CC(=O)Nc1ccc(S(=O)(=O)NC(C)=O)cc1` the T/C [1] was 100 % of control, the T/C [2] was 98 % of control and the T/C [3] was 108 % of control. The T/C [4] was 100 % of control.

`CN(c1ccccc1)c1c(Cl)c(=O)oc2c1ccc1occc12` was tested, and the T/C (dose: 30.0 mg/kg/injection, schedule: Q01DX005 (ip), vehicle: saline with Tween-80) was 103 % of control, the T/C [16] was 106 % of control and the T/C (dose: 120.0 mg/kg/injection, schedule: Q01DX005 (ip), vehicle: saline) was 96 % of control. For the same compound, the T/C [17] was 105 % of control and the T/C (dose: 240.0 mg/kg/injection, schedule: Q01DX005 (ip), vehicle: saline) was 103 % of control.

With `c1cnc2n[se]nc2c1` the T/C (dose: 6.25 mg/kg/injection, schedule: Q04DX002 (ip), vehicle: saline) was 113 % of control and the T/C (dose: 12.5 mg/kg/injection, schedule: Q04DX002 (ip), vehicle: saline) was 97 % of control.

In the case of `C/C(=N\NC(N)=S)c1ccccc1O`, the T/C [13] is reported as 99 % of control, the T/C [14] is reported as 111 % of control and the T/C [15] is reported as 102 % of control.

With `CC1(C)C(=O)/C(=C/c2ccccc2N)Cc2ccccc21` the T/C (dose: 50.0 mg/kg/injection, schedule: Q01DX005 (ip), vehicle: Klucel (hydroxypropylcellulose) (HPC)) was 90 % of control, the T/C (dose: 100.0 mg/kg/injection, schedule: Q01DX005 (ip), vehicle: Klucel (hydroxypropylcellulose) (HPC)) was 107 % of control and the T/C (dose: 200.0 mg/kg/injection, schedule: Q01DX005 (ip), vehicle: Klucel (hydroxypropylcellulose) (HPC)) was 102 % of control.

For `NC(=O)CS(=O)CC(N)C(=O)O` (centres undefined), the T/C [18] was 100 % of control, the T/C [19] was 105 % of control and the T/C [20] was 95 % of control.

`O=[N+]([O-])c1ccc(S(=O)(=O)Nc2c([N+](=O)[O-])cc([N+](=O)[O-])c3ccccc23)cc1` was tested, and the T/C (dose: 50.0 mg/kg/injection, schedule: Q04DX003 (ip), vehicle: saline with Tween-80) was 92 % of control, the T/C [8] was 95 % of control and the T/C [9] was 105 % of control.

In the case of `COc1cc2c(cc1-c1coc3cc(O)ccc3c1=O)OCO2`, the T/C (dose: 1.1 mg/kg/injection, schedule: Q01DX005 (ip), vehicle: Klucel (hydroxypropylcellulose) (HPC)) is reported as 90 % of control, the T/C (dose: 2.13 mg/kg/injection, schedule: Q01DX005 (ip), vehicle: Klucel (hydroxypropylcellulose) (HPC)) is reported as 86 % of control and the T/C (dose: 4.25 mg/kg/injection, schedule: Q01DX005 (ip), vehicle: Klucel (hydroxypropylcellulose) (HPC)) is reported as 92 % of control and 96 % of control. For the same compound, the T/C (dose: 8.5 mg/kg/injection, schedule: Q01DX005 (ip), vehicle: Klucel (hydroxypropylcellulose) (HPC)) was 88 % of control and 94 % of control and the T/C (dose: 68.0 mg/kg/injection, schedule: Q01DX005 (ip), vehicle: Klucel (hydroxypropylcellulose) (HPC)) was 86 % of control.

With `COC(=O)C1CCCN1C(=O)C(CCCCNC(=O)OCc1ccccc1)NC(=O)OCc1ccccc1` (centres undefined) (Cbz-Lys(Cbz)-Pro-OMe; configuration not given here) the T/C [18] was 106 % of control, the T/C [19] was 103 % of control and the T/C [20] was 105 % of control.

For `COC(=O)c1nc(SC)[nH]c1CC(N)=O`, the T/C [16] was 101 % of control, the T/C (dose: 120.0 mg/kg/injection, schedule: Q01DX005 (ip), vehicle: saline with Tween-80) was 100 % of control and the T/C [17] was 96 % of control.

With `COC1(OC)/C(=N/NS(=O)(=O)c2ccc(C)cc2)C2CC1C1CC21` (centres undefined) the T/C (dose: 25.0 mg/kg/injection, schedule: Q01DX009 (ip), vehicle: saline with Tween-80) was 98 % of control, the T/C (dose: 50.0 mg/kg/injection, schedule: Q01DX009 (ip), vehicle: saline with Tween-80) was 96 % of control and the T/C (dose: 100.0 mg/kg/injection, schedule: Q01DX009 (ip), vehicle: saline with Tween-80) was 96 % of control.

With `CC1CC[N-]CC1.CC1CC[N-]CC1.CC1CC[N-]CC1.CC1CC[N-]CC1.CS(C)=O.CS(C)=O.[Cl-].[Cl-].[Cl-].[Cl-].[Pt+4].[Rh+3]` the T/C (dose: 0.19 mg/kg/injection, schedule: Q01DX009 (ip), vehicle: saline) was 98 % of control, the T/C (dose: 0.38 mg/kg/injection, schedule: Q01DX009 (ip), vehicle: saline) was 114 % of control and the T/C (dose: 0.75 mg/kg/injection, schedule: Q01DX009 (ip), vehicle: saline) was 105 % of control. For the same compound, the T/C (dose: 1.5 mg/kg/injection, schedule: Q01DX009 (ip), vehicle: saline) was 108 % of control and the T/C (dose: 3.0 mg/kg/injection, schedule: Q01DX009 (ip), vehicle: saline) was 115 % of control.

In the case of `OCC1OC(n2cnc3c(NO)nc(NO)nc32)C(O)C1O` (centres undefined), the T/C (dose: 2.25 mg/kg/injection, schedule: Q01DX009 (ip), vehicle: saline) is reported as 100 % of control, the T/C (dose: 4.5 mg/kg/injection, schedule: Q01DX009 (ip), vehicle: saline) is reported as 114 % of control and the T/C (dose: 14.3 mg/kg/injection, schedule: Q01DX009 (ip), vehicle: saline) is reported as 107 % of control. The T/C (dose: 18.0 mg/kg/injection, schedule: Q01DX009 (ip), vehicle: saline) was 114 % of control and the T/C (dose: 54.0 mg/kg/injection, schedule: Q01DX009 (ip), vehicle: saline) was 184 % of control.

`O=C(Oc1ccccc1)C1CC2(C1)CC(C(=O)Oc1ccccc1)C2` (centres undefined) was tested, and the T/C [10] was 101 % of control, the T/C [11] was 99 % of control and the T/C [12] was 99 % of control.
